Experimental data published in ChEMBL document CHEMBL5729639, “FGFR4 inhibitor and preparation method and use thereof” (2023).
pIC50: −log10 of the molar value.

Target: Fibroblast growth factor receptor 1 (Homo sapiens, UniProt P11362)
Test: Enzymologic Experiment of FGFR1: In this experiment, the inhibitory effect of the compounds on FGFR1 kinase activity was tested by a fluorescence resonance energy transfer (TR-FRET) method, and the half maximal inhibitory concentration (IC50) of the compounds on the FGFR1 kinase activity was determined. 1) 1˜5 μL of FGFR1 enzymatic solution was added to a 384-well plate, and the final concentration of the enzyme was 0.1˜5 nM. 2) 1˜5 μL of diluted solution in gradient of the compound was added.3) 1˜5 μL of a substrate mixture containing substrate polypeptide with a final concentration of 5˜50 nM and ATP with a final concentration of 10˜200 μM was added. 4) The mixture was incubated for 0.5-3 hours at room temperature. 5) 10 μL of EDTA and a test solution comprising labeled antibody were added, and the plate was incubated for 1 hour at room temperature. 6) The fluorescence signal values of each plate were determined by a microplate reader at 665 nm. 7) The inhibition rates were calculated according to the fluorescence signal values.

Chain of Fibroblast growth factor receptor 1 (P11362 whole entry): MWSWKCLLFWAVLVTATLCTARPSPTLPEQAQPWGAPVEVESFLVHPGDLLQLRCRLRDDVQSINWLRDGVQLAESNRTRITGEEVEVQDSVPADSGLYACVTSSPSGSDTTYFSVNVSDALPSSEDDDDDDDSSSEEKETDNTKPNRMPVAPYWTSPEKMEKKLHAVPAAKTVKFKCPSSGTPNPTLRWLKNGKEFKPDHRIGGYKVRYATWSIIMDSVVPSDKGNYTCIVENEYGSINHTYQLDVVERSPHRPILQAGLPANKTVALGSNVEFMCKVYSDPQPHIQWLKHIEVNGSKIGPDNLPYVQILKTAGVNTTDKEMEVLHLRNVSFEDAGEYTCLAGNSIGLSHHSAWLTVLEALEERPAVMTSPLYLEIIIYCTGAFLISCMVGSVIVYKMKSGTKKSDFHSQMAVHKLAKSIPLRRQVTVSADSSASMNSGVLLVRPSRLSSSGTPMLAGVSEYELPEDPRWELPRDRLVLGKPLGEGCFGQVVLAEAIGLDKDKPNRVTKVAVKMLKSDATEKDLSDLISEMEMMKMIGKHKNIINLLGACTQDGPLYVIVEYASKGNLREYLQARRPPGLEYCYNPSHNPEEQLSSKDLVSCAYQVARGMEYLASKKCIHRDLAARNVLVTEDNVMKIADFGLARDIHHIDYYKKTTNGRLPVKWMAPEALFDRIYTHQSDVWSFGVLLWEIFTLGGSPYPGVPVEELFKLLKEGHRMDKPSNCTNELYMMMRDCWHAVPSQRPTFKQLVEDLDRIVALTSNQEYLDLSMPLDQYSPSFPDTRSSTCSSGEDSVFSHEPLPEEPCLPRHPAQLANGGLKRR

pIC50 | SMILES
< 5.00 | COCCNc1cc(NC(=O)N2CCCc3cc(CN(C=O)C[C@@H]4CCCO4)c(C=O)nc32)ncc1C#N
< 5.00 | COCCNc1cc(NC(=O)N2CCCc3cc(CN(C=O)[C@H]4CCOC4)c(C=O)nc32)ncc1C#N
< 5.00 | COC[C@@H](C)Nc1cc(NC(=O)N2CCCc3cc(CN4CC[C@@H](OC)C4=O)c(C=O)nc32)ncc1C#N
< 5.00 | COCCNc1cc(NC(=O)N2CCCc3cc(CN(C=O)C[C@H]4CCCO4)c(C=O)nc32)ncc1C#N
